Results: PubChem BioAssay (NCI)
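Each compound was tested at five concentrations against cells in 96-well plates for 48 hours. GI50 = concentration required for 50% inhibition of growth. TGI is the concentration that stops growth completely.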

Tests used:
Test in all cases: NCI tumour cell line growth inhibition, 48 h
[1] = system: OVCAR-3 ovarian
[2] = system: SW-620 colon
[3] = system: U251 CNS
[4] = system: SN12C renal
[5] = system: A549 NSCLC
[6] = system: UACC-257 melanoma
[7] = system: HCC-2998 colon
[8] = system: SF-268 CNS
[9] = system: MDA-MB-435
[10] = system: MCF7 breast
[11] = system: 786-0 renal
[12] = system: A498 renal
[13] = system: M14 melanoma
[14] = system: SNB-75 CNS
[15] = system: BT-549 breast
[16] = system: HT29 colon
[17] = system: OVCAR-8 ovarian
[18] = system: COLO 205 colon
[19] = system: NCI-H226 lung
[20] = system: OVCAR-4 ovarian
[21] = system: RXF 393 renal
[22] = system: SF-295 CNS
[23] = system: IGROV1 ovarian
[24] = system: OVCAR-5 ovarian
[25] = system: SK-MEL-5 melanoma
[26] = system: T-47D breast
[27] = system: KM12 colon
[28] = system: LOX IMVI melanoma
[29] = system: PC-3 prostate
[30] = system: SNB-19 CNS
[31] = system: DU-145 prostate
[32] = system: HL-60(TB) leukemia
[33] = system: TK-10 renal
[34] = system: SK-MEL-28 melanoma
[35] = system: UO-31 renal
[36] = system: NCI-H522 lung
[37] = system: HOP-92 NSCLC
[38] = system: HS 578T breast
[39] = system: MALME-3M melanoma
[40] = system: SF-539 CNS
[41] = system: HCT-116 colon
[42] = system: SK-MEL-2 melanoma
[43] = system: EKVX NSCLC
[44] = system: HOP-62 NSCLC
[45] = system: CAKI-1 renal
[46] = system: SK-OV-3 ovarian
[47] = system: ACHN renal
[48] = system: NCI-H23 lung
[49] = system: NCI/ADR-RES ovarian
[50] = system: HCT-15 colon

COc1ccc(Nc2nccc(Nc3ccc4[nH]ncc4c3)n2)cc1
GI50 [1]: 3.15 µM
TGI [1]: 10.6 µM
GI50 [2]: 3.31 µM
TGI [2]: > 100 µM
GI50 [3]: 3.61 µM
TGI [3]: 13.6 µM
GI50 [4]: 3.92 µM
TGI [4]: > 100 µM
GI50 [5]: 3.46 µM
TGI [5]: 14.3 µM
GI50 [6]: 5.41 µM
TGI [6]: 16.9 µM
GI50 [7]: 2.88 µM
TGI [7]: 8.05 µM
GI50 [8]: 4.2 µM
TGI [8]: 28.6 µM
GI50 [9]: 2.1 µM
TGI [9]: 5.7 µM
GI50 [10]: 2.05 µM
TGI [10]: 5.36 µM
GI50 [11]: 1.74 µM
TGI [11]: 4.75 µM
GI50 [12]: 4.62 µM
TGI [12]: 17.2 µM
GI50 [13]: 2.39 µM
TGI [13]: 6.15 µM
GI50 [14]: 4.58 µM
TGI [14]: 20.3 µM
GI50 [15]: 3.22 µM
TGI [15]: 12.1 µM
GI50 [16]: 2.36 µM
TGI [16]: 8.33 µM
GI50 [17]: 2.24 µM
TGI [17]: 5.39 µM
GI50 [18]: 2.59 µM
TGI [18]: 7.21 µM
GI50 [19]: 2.3 µM
TGI [19]: 5.77 µM
GI50 [20]: 2.99 µM
TGI [20]: 11.8 µM
GI50 [21]: 1.98 µM
TGI [21]: 6.45 µM
GI50 [22]: 3.78 µM
TGI [22]: 13.8 µM
GI50 [23]: 3.36 µM
TGI [23]: 25.1 µM
GI50 [24]: 3.33 µM
TGI [24]: > 100 µM
GI50 [25]: 2.01 µM
TGI [25]: 4.75 µM
GI50 [26]: 1.77 µM
TGI [26]: 5.42 µM
GI50 [27]: 3.45 µM
TGI [27]: 24.2 µM
GI50 [28]: 1.92 µM
TGI [28]: 3.87 µM
GI50 [29]: 2.21 µM
TGI [29]: 7.2 µM
GI50 [30]: 4.3 µM
TGI [30]: 87 µM
GI50 [31]: 3.31 µM
TGI [31]: 12.9 µM
GI50 [32]: 2.05 µM
TGI [32]: 4.67 µM
GI50 [33]: 2.45 µM
TGI [33]: 9.55 µM
GI50 [34]: 3.64 µM
TGI [34]: 16.5 µM
GI50 [35]: 2.12 µM
TGI [35]: 11.4 µM
GI50 [36]: 1.86 µM
TGI [36]: 4.77 µM
GI50 [37]: 3.13 µM
TGI [37]: 12.9 µM
GI50 [38]: 5.02 µM
TGI [38]: > 100 µM
GI50 [39]: 3.27 µM
TGI [39]: 15.9 µM
GI50 [40]: 4.38 µM
TGI [40]: 16.8 µM
GI50 [41]: 2.06 µM
TGI [41]: 4.91 µM
GI50 [42]: 2.4 µM
TGI [42]: 6.39 µM
GI50 [43]: 5 µM
TGI [43]: 17.9 µM
GI50 [44]: 2.27 µM
TGI [44]: 5.75 µM
GI50 [45]: 2.22 µM
TGI [45]: 14.9 µM
GI50 [46]: 7.04 µM
TGI [46]: 21.7 µM
GI50 [47]: 2.89 µM
TGI [47]: 11.7 µM
GI50 [48]: 2.35 µM
TGI [48]: 6.27 µM
GI50 [49]: 2.18 µM
TGI [49]: 5.75 µM
GI50 [50]: 1.9 µM
TGI [50]: 4.28 µM
